Results reported in patent publication US20100305113A1, “Substituted Imidazopyridazines as Lipid Kinase Inhibitors” (priority 2007, published 2010).

Tests used:
[1] = molecular target: T1, PI3K beta (Homo sapiens, UniProt P42338); experiment: PI3K beta enzymatic assay (Kinase-Glo luminescence); type: biochemical; conditions: Enzymatic Data
T1 construct: for the full-length p110-b subunit are generated and fused by overlapping PCR; p85(iSH2) fusion partner (same polypeptide; see partner chain) (N); Gly linker (N); His tag (C); made in house; host or cells: baculovirus; Tn5 (Trichoplusia ni) or TiniPro insect cells
Method in brief: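 Full-length p110β with p85 iSH2 (His-tagged) at 25 nM, 10 μg/mL phosphatidylinositol and 1 μM ATP, in pH 7.5 Tris with 3 mM MgCl2, 60 min at room temperature. Remaining ATP read by Kinase-Glo luminescence; IC50 from 4-parameter logistic fit over 8 concentrations.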

[2] = molecular target: T2, PI3K delta (Homo sapiens, UniProt O00329); experiment: PI3K delta enzymatic assay (Kinase-Glo luminescence); type: biochemical; conditions: Enzymatic Data
T2 construct: for the full-length p110-d subunit are generated and fused by overlapping PCR; p85(iSH2) fusion partner (same polypeptide; see partner chain) (N); Gly linker (N); His tag (C); made in house; host or cells: baculovirus; Tn5 (Trichoplusia ni) or TiniPro insect cells
Method in brief: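 10 nM PI3Kδ p85(iSH2)-Gly linker-full-length p110δ His-tagged construct with 10 µg/mL phosphatidylinositol and 1 µM ATP. Buffer: 10 mM Tris pH 7.5, 3 mM MgCl2, 50 mM NaCl, 0.05% CHAPS, 1 mM DTT; 60 min RT. Kinase-Glo luminescence; IC50 from 4-parameter logistic fit over 8 concentrations.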

[3] = molecular target: T3, PI3K alfa (Homo sapiens, UniProt P42336); experiment: PI3K alfa enzymatic assay (Kinase-Glo luminescence); type: biochemical; conditions: Enzymatic Data
T3 construct: p85(iSH2) fusion partner (same polypeptide; see partner chain) (N); 12x Gly linker (N); His tag (C); made in house; host or cells: baculovirus; Tn5 (Trichoplusia ni) or TiniPro insect cells
Method in brief: (§1)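 Kinase-Glo ATP-depletion luminescence with 1 μM ATP and 10 μg/mL phosphatidylinositol in pH 7.5 Tris buffer; 10 nM PI3Kα incubated 60 min, 150 nM PI3Kγ 120 min, at room temperature. IC50 by 4-parameter logistic fit over 8 concentrations.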

[4] = molecular target: T4, PI3K gamma (Homo sapiens, UniProt P48736); experiment: PI3K gamma enzymatic assay (Kinase-Glo luminescence); type: biochemical; conditions: Enzymatic Data
T4 construct: His tag (C); made in house; host or cells: construct from Roger Williams lab (MRC LMB); baculovirus (pVL1393); Tn5 (Trichoplusia ni) or TiniPro insect cells
Method in brief: as §1

T1 sequence (P42338 with tags, fused parts or gaps limits assumed): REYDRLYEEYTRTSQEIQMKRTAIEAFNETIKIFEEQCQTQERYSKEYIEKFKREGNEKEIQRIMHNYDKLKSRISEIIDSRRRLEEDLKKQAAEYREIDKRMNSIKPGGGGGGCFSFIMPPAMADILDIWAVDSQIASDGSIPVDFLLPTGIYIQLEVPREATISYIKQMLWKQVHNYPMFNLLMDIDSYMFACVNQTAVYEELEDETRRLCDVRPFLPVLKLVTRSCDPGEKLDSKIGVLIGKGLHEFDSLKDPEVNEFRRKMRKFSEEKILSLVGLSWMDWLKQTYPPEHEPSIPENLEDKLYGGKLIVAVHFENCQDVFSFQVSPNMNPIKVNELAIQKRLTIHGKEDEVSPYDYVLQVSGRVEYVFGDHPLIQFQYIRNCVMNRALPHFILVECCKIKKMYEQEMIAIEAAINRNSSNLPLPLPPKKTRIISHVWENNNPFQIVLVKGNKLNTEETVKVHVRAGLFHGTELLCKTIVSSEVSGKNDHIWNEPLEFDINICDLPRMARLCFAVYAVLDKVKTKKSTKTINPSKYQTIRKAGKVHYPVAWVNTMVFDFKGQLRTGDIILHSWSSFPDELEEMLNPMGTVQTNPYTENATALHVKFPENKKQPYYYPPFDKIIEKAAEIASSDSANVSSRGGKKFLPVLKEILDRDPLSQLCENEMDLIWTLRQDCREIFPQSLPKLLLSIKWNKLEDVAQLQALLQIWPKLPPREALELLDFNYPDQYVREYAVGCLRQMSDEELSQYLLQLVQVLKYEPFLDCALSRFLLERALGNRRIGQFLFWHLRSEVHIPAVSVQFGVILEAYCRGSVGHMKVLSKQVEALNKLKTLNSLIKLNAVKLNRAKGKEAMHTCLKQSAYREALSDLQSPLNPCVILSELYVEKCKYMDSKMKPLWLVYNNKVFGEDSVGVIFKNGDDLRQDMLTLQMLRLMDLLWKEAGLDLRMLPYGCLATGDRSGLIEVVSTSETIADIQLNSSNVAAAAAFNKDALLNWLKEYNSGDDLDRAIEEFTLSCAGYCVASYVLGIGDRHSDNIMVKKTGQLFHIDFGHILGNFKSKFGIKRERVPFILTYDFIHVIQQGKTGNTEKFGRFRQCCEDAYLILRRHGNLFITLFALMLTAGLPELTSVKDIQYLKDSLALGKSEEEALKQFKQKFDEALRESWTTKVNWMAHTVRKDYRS
T3 sequence (P42336 with tags, fused parts or gaps limits assumed): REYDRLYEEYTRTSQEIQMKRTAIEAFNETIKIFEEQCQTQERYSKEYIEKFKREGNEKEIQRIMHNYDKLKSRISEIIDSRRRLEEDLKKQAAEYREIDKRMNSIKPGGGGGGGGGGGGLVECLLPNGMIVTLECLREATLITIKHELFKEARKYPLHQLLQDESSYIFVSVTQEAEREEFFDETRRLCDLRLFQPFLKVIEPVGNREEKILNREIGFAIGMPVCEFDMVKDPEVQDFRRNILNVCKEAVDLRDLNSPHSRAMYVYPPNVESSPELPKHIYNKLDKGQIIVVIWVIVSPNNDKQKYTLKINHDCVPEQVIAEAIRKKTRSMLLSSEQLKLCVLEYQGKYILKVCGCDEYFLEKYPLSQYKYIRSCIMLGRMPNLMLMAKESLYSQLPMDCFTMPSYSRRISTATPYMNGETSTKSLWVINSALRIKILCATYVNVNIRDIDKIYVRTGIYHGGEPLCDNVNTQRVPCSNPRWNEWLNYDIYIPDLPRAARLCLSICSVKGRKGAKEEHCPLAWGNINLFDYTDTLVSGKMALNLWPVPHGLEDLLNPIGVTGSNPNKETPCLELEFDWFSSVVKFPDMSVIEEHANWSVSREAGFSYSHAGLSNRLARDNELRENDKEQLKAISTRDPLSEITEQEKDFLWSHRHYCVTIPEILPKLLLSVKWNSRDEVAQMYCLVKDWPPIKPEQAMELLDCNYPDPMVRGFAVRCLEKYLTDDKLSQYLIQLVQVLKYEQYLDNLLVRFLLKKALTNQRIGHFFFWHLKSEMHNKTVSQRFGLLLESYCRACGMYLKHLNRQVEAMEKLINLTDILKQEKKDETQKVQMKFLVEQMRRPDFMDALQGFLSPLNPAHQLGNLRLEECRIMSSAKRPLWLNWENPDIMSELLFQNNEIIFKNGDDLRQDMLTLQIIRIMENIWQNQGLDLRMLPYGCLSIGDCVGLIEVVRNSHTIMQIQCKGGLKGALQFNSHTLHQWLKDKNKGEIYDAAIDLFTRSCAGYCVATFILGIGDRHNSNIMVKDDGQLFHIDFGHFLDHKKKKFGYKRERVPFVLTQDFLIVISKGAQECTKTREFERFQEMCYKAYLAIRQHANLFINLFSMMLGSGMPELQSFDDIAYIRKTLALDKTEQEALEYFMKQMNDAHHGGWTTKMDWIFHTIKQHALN
T2 sequence (O00329 with tags, fused parts or gaps limits assumed): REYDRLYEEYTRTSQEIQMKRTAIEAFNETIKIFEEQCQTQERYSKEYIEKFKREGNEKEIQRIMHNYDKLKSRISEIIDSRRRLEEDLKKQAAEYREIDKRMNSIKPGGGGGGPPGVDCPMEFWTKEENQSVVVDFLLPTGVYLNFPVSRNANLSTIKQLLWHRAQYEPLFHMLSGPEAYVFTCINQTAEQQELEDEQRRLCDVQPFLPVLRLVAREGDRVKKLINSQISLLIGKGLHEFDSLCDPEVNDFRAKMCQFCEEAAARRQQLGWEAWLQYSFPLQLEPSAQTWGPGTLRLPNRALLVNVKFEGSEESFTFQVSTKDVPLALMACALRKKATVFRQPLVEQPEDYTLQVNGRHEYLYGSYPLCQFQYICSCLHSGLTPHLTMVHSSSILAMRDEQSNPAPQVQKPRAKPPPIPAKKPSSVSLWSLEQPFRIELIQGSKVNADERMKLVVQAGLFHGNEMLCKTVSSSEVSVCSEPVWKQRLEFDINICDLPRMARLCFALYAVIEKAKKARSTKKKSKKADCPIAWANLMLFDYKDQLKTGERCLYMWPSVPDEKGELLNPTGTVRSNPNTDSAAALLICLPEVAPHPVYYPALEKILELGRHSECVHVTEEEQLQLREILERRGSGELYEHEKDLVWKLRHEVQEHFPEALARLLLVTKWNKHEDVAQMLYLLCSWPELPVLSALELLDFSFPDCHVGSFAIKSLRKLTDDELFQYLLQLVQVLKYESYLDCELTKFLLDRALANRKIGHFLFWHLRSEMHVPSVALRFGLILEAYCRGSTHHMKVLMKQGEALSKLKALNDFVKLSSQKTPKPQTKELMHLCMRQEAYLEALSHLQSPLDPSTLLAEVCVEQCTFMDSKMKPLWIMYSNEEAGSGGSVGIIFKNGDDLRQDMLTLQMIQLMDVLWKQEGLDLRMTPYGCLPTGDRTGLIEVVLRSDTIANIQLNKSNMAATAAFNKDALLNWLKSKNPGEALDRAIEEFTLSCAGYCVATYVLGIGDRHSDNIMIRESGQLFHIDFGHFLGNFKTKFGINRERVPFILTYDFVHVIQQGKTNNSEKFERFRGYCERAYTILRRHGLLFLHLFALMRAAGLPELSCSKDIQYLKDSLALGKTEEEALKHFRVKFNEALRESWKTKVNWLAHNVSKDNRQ
T4 sequence (P48736 144-1102 limits assumed): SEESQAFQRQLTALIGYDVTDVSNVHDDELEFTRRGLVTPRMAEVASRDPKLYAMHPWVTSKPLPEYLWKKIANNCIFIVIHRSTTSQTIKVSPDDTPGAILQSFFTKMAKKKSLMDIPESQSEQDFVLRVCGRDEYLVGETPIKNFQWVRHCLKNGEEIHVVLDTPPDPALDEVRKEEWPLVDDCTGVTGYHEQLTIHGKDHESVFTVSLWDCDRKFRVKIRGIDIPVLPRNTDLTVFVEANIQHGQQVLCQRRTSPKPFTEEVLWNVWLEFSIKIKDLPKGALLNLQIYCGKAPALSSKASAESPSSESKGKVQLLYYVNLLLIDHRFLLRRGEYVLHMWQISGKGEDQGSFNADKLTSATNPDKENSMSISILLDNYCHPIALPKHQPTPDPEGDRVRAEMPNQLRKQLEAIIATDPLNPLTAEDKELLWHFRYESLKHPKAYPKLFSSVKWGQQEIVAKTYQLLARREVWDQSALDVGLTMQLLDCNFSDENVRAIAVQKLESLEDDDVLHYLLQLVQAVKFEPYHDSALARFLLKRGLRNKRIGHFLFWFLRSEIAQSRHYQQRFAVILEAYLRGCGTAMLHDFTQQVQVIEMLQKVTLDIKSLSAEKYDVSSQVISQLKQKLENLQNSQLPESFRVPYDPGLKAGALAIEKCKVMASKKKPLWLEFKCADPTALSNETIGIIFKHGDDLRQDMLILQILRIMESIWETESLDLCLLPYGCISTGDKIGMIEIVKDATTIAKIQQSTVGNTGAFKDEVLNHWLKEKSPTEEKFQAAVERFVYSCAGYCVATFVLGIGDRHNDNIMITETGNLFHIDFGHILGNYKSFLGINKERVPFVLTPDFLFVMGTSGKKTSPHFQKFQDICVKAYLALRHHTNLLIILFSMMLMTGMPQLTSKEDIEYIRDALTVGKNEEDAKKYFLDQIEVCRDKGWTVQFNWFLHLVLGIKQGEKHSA

Row | Structure (SMILES) | IC50 [1] [µM] | melting point [°C] | IC50 [2] [nM] | IC50 [3] [nM] | IC50 [4] [nM]
1 | Cc1nc2ccc(-c3ccc(OCC4(N)COC4)cc3)nn2c1-c1cnc(N)c(C(F)(F)F)c1 [Example 111, 5-{6-[4-(3-Amino-oxetan-3-ylmethoxy)-phenyl]-2-methyl-imidazo[1,2-b]pyridazin-3-yl}-3-trifluoromethyl-pyridin-2-ylamine] | 2.39 | 198 to 200 | 895 | 131 | 1190
2 | Cc1nc2ccc(-c3ccc(OCC4(NC(=O)C5CC5)COC4)cc3)nn2c1-c1cnc(N)c(C(F)(F)F)c1 [Example 110, Cyclopropanecarboxylic acid (3-{4-[3-(6-amino-5-trifluoromethyl-pyridin-3-yl)-2-methyl-imidazo[1,2-b]pyridazin-6-yl]-phenoxymethyl}-oxetan-3-yl)-amide] | 8.19 | 191 to 193 | 1590 | 126 | 2080
3 | COc1cc(-c2ccc3nc(C)c(-c4ccc(S(C)(=O)=O)cc4)n3n2)ccc1OC1CCNCC1 [Example 101, 3-(4-Methanesulfonyl-phenyl)-6-[3-methoxy-4-(piperidin-4-yloxy)-phenyl]-2-methyl-imidazo[1,2-b]pyridazine] | > 9.1 | – | 1180 | 1040 | > 9100
4 | Cc1nc2ccc(-c3ccc4c(c3)OCO4)nn2c1-c1cnc2[nH]ccc2c1 [Example 109, 6-Benzo[1,3]dioxol-5-yl-2-methyl-3-(1H-pyrrolo[2,3-b]pyridin-5-yl)-imidazo[1,2-b]pyridazine] | > 9.1 | – | 3940 | 5910 | > 9100

Results, then the compound that gave them:

Row | IC50 [1] [µM] | melting point [°C] | IC50 [2] [nM] | IC50 [3] [nM] | IC50 [4] [nM] | Structure (SMILES)
5 | 4.24 | 214 to 216 | 937 | 59 | 4660 | Cc1nc2ccc(-c3ccc(OCC4(NC(=O)C(F)(F)F)COC4)cc3)nn2c1-c1cnc(N)c(C(F)(F)F)c1 [Example 116, N-(3-{4-[3-(6-Amino-5-trifluoromethyl-pyridin-3-yl)-2-methyl-imidazo[1,2-b]pyridazin-6-yl]-phenoxymethyl}-oxetan-3-yl)-2,2,2-trifluoro-acetamide]
6 | > 9.1 | 202 to 204 | 1970 | 295 | 3160 | COC(=O)NC1(COc2ccc(-c3ccc4nc(C)c(-c5cnc(N)c(C(F)(F)F)c5)n4n3)cc2)COC1 [Example 115, (3-{4-[3-(6-Amino-5-trifluoromethyl-pyridin-3-yl)-2-methyl-imidazo[1,2-b]pyridazin-6-yl]-phenoxymethyl}-oxetan-3-yl)-carbamic acid methyl ester]
7 | > 9.1 | – | 3490 | 244 | 2590 | COc1cc(-c2ccc3nc(C)c(-c4cnc(N)c(C(F)(F)F)c4)n3n2)ccc1OCCCNC(=O)C(F)(F)F [Example 85, N-(3-{4-[3-(6-Amino-5-trifluoromethyl-pyridin-3-yl)-2-methyl-imidazo[1,2-b]pyridazin-6-yl]-2-methoxy-phenoxy}-propyl)-2,2,2-trifluoro-acetamide]
8 | 8.73 | – | 435 | 49 | 1520 | Cc1nc2ccc(-c3ccc(OCC4(NC(=O)C(C)C)COC4)cc3)nn2c1-c1cnc(N)c(C(F)(F)F)c1 [Example 114, N-(3-{4-[3-(6-Amino-5-trifluoromethyl-pyridin-3-yl)-2-methyl-innidazo[1,2-b]pyridazin-6-yl]-phenoxymethyl}-oxetan-3-yl)-isobutyramide]
9 | > 9.1 | – | 2700 | 175 | 1930 | COc1cc(-c2ccc3nc(C)c(-c4cnc(N)c(C(F)(F)F)c4)n3n2)ccc1OCCCNC(=O)OC(C)C [Example 80]
